Laboratory results taken from US10538555B2, “Macrocyclic inhibitors of the PD-1/PD-L1 and CD80(B7-1)/PD-L1 protein/protein interactions” (BRISTOL-MYERS SQUIBB COMPANY, priority 2014, dated 2020).
Where a SMILES comes first, the peptide text is derived from it. Bridges are numbered along the chain shown (N, C = ends). [ ]: non-standard residue; d: D form. ξ: configuration not given here. Bta = N[C@@H](Cc1csc2ccccc12)C(=O)O; Hyp = O=C(O)[C@@H]1C[C@@H](O)CN1; NMeNle = CCCC[C@H](NC)C(=O)O; d(hSer) = N[C@H](CCO)C(=O)O; hSer = N[C@@H](CCO)C(=O)O; NMeA = CN[C@@H](C)C(=O)O; ξC = NC(CS)C(=O)O

target: T1, Human PD-L1/PD-1 (Homo sapiens, UniProt Q9NZQ7); assay: HTRF Human PD-L1/PD-1 binding assay (PD-1-Ig/PD-L1-His); details: PD-L1-His 10 nM, PD-1-Ig 20 nM; class symbol; read-out: HTRF Human PD-L1/PD-1 Binding Assay IC50 Range
T1 construct: TVMV protease cleavage site (C); made in house; host or cells: HEK293T cells
In short: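 Compound preincubated 15 min with PD-L1-His (10 nM final), then PD-1-Ig (20 nM final) added for 15 min in dPBS with 0.1% BSA and 0.05% Tween-20. Detection by Eu-cryptate anti-Ig (1 nM) and APC anti-His (20 nM) after 30 min; 665/620 nm HTRF ratio. Proteins expressed in HEK293T.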

T1 sequence (Q9NZQ7 with tags, fused parts or gaps): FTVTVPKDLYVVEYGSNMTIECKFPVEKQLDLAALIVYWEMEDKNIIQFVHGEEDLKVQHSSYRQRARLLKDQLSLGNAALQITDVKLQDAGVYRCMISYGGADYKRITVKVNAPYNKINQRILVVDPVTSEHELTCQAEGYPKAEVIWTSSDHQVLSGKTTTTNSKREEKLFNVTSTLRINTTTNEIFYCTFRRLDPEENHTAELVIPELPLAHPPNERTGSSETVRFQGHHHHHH

IC50	Compound
10 to 99.9 nM	CCCC[C@H]1C(=O)N(C)[C@@H](C)C(=O)N[C@@H](CCCNC(=N)N)C(=O)NC(C(=O)N[C@@H](CO)C(N)=O)CSCC(=O)N[C@@H](Cc2ccc(O)cc2)C(=O)N(C)[C@@H](C)C(=O)N[C@@H](CC(N)=O)C(=O)N2CCC[C@H]2C(=O)N[C@@H](CO)C(=O)N[C@H](CC(C)C)C(=O)N2C[C@H](O)C[C@H]2C(=O)N[C@@H](Cc2c[nH]c3ccccc23)C(=O)N[C@@H](CO)C(=O)N[C@@H](Cc2csc3ccccc23)C(=O)N1C (stereo partly drawn) [Example 9124] ({CH2CO}-Y[NMeA]NPS[dL][Hyp]WS[Bta][NMeNle][NMeA]R[ξC]S-NH2; thioether N-14)
10 to 99.9 nM	CCCC[C@H]1C(=O)N(C)[C@@H](CCCC)C(=O)N[C@@H](CCCNC(=N)N)C(=O)NC(C(=O)NCC(N)=O)CSCC(=O)N[C@@H](Cc2ccc(O)cc2)C(=O)N(C)[C@@H](C)C(=O)N[C@@H](CC(N)=O)C(=O)N2CCC[C@H]2C(=O)N[C@@H](Cc2cnc[nH]2)C(=O)N[C@H](CCO)C(=O)N2C[C@H](O)C[C@H]2C(=O)N[C@@H](Cc2c[nH]c3ccccc23)C(=O)N[C@@H](CO)C(=O)N[C@@H](Cc2c[nH]c3ccccc23)C(=O)N1C (stereo partly shown) [Example 9125] ({CH2CO}-Y[NMeA]NPH[d(hSer)][Hyp]WSW[NMeNle][NMeNle]R[ξC]G-NH2; thioether N-14)
1 to 9.9 nM	CCCC[C@H]1C(=O)N(C)[C@@H](CCCC)C(=O)N[C@@H](CCCNC(=N)N)C(=O)NC(C(=O)NCC(N)=O)CSCC(=O)N[C@@H](Cc2ccc(O)cc2)C(=O)N(C)[C@@H](C)C(=O)N[C@@H](CC(N)=O)C(=O)N2CCC[C@H]2C(=O)N[C@@H](Cc2cnc[nH]2)C(=O)N[C@@H](CCO)C(=O)N2CCC[C@H]2C(=O)N[C@@H](Cc2c[nH]c3ccccc23)C(=O)N[C@@H](CO)C(=O)N[C@@H](Cc2csc3ccccc23)C(=O)N1C (stereo partly shown) [Example 9126] ({CH2CO}-Y[NMeA]NPH[hSer]PWS[Bta][NMeNle][NMeNle]R[ξC]G-NH2; thioether N-14)
1 to 9.9 nM	CCCC[C@H]1C(=O)N(C)[C@@H](CCCC)C(=O)N[C@@H](CCCNC(=N)N)C(=O)NC(C(=O)NCC(N)=O)CSCC(=O)N[C@@H](Cc2ccc(O)cc2)C(=O)N(C)[C@@H](C)C(=O)N[C@@H](CC(N)=O)C(=O)N2CCC[C@H]2C(=O)N[C@@H](CCO)C(=O)N[C@@H](CC(C)C)C(=O)N2C[C@H](O)C[C@H]2C(=O)N[C@@H](Cc2c[nH]c3ccccc23)C(=O)N[C@@H](CO)C(=O)N[C@@H](Cc2c[nH]c3ccccc23)C(=O)N1C (stereo partly shown) [Example 9127] ({CH2CO}-Y[NMeA]NP[hSer]L[Hyp]WSW[NMeNle][NMeNle]R[ξC]G-NH2; thioether N-14)
1 to 9.9 nM	CCCC[C@H]1C(=O)N(C)[C@@H](CCCC)C(=O)N[C@@H](CCCNC(=N)N)C(=O)NC(C(=O)NCC(N)=O)CSCC(=O)N[C@@H](Cc2ccc(O)cc2)C(=O)N(C)[C@@H](C)C(=O)N[C@@H](CC(N)=O)C(=O)N2CCC[C@H]2C(=O)N[C@@H](CC(N)=O)C(=O)N[C@@H](CC(C)C)C(=O)N2CCC[C@H]2C(=O)N[C@@H](Cc2c[nH]c3ccccc23)C(=O)N[C@@H](CCO)C(=O)N[C@@H](Cc2c[nH]c3ccccc23)C(=O)N1C (stereo partly shown) [Example 9128] ({CH2CO}-Y[NMeA]NPNLPW[hSer]W[NMeNle][NMeNle]R[ξC]G-NH2; thioether N-14)
1 to 9.9 nM	CCCC[C@H]1C(=O)N(C)[C@@H](CCCC)C(=O)N[C@@H](CCCNC(=N)N)C(=O)NC(C(=O)NCC(N)=O)CSCC(=O)N[C@@H](Cc2ccc(O)cc2)C(=O)N(C)[C@@H](C)C(=O)N[C@@H](CC(N)=O)C(=O)N2CCC[C@H]2C(=O)N[C@@H](CC(N)=O)C(=O)N[C@@H](CC(C)C)C(=O)N2CCC[C@H]2C(=O)N[C@@H](Cc2c[nH]c3ccccc23)C(=O)N[C@@H](CCO)C(=O)N[C@@H](Cc2csc3ccccc23)C(=O)N1C (stereo partly shown) [Example 9129] ({CH2CO}-Y[NMeA]NPNLPW[hSer][Bta][NMeNle][NMeNle]R[ξC]G-NH2; thioether N-14)
1 to 9.9 nM	CCCC[C@H]1C(=O)N(C)[C@@H](CCCC)C(=O)N[C@@H](CCCNC(=N)N)C(=O)NC(C(=O)NCC(N)=O)CSCC(=O)N[C@@H](Cc2ccc(O)cc2)C(=O)N(C)[C@@H](C)C(=O)N[C@@H](CC(N)=O)C(=O)N2CCC[C@H]2C(=O)N[C@@H](CC(N)=O)C(=O)N[C@@H](CC(C)C)C(=O)N2C[C@H](O)C[C@H]2C(=O)N[C@@H](Cc2c[nH]c3ccccc23)C(=O)N[C@@H](CCO)C(=O)N[C@@H](Cc2c[nH]c3ccccc23)C(=O)N1C (stereo partly shown) [Example 9130] ({CH2CO}-Y[NMeA]NPNL[Hyp]W[hSer]W[NMeNle][NMeNle]R[ξC]G-NH2; thioether N-14)
1 to 9.9 nM	CCCC[C@H]1C(=O)N(C)[C@@H](CCCC)C(=O)N[C@@H](CCCNC(=N)N)C(=O)NC(C(=O)NCC(N)=O)CSCC(=O)N[C@@H](Cc2ccc(O)cc2)C(=O)N(C)[C@@H](C)C(=O)N[C@@H](CC(N)=O)C(=O)N2CCC[C@H]2C(=O)N[C@@H](CC(N)=O)C(=O)N[C@@H](CC(C)C)C(=O)N2C[C@H](O)C[C@H]2C(=O)N[C@@H](Cc2c[nH]c3ccccc23)C(=O)N[C@@H](CCO)C(=O)N[C@@H](Cc2csc3ccccc23)C(=O)N1C (stereo partly shown) [Example 9131] ({CH2CO}-Y[NMeA]NPNL[Hyp]W[hSer][Bta][NMeNle][NMeNle]R[ξC]G-NH2; thioether N-14)
10 to 99.9 nM	CCCC[C@H]1C(=O)N(C)[C@@H](CCCC)C(=O)N[C@@H](C)C(=O)NC(C(=O)NCC(N)=O)CSCC(=O)N[C@@H](Cc2ccc(O)cc2)C(=O)N(C)[C@@H](C)C(=O)N[C@@H](CC(N)=O)C(=O)N2CCC[C@H]2C(=O)N[C@@H](CC(N)=O)C(=O)N[C@@H](CC(C)C)C(=O)N2CCC[C@H]2C(=O)N[C@@H](Cc2c[nH]c3ccccc23)C(=O)N[C@@H](CO)C(=O)N[C@@H](Cc2c[nH]c3ccccc23)C(=O)N1C (stereo partly shown) [Example 9132] ({CH2CO}-Y[NMeA]NPNLPWSW[NMeNle][NMeNle]A[ξC]G-NH2; thioether N-14)
1 to 9.9 nM	CCCC[C@H]1C(=O)N(C)[C@@H](CCCC)C(=O)N[C@@H](C)C(=O)NC(C(=O)NCC(N)=O)CSCC(=O)N[C@@H](Cc2ccc(O)cc2)C(=O)N(C)[C@@H](C)C(=O)N[C@@H](CC(N)=O)C(=O)N2CCC[C@H]2C(=O)N[C@@H](CC(N)=O)C(=O)N[C@@H](CC(C)C)C(=O)N2CCC[C@H]2C(=O)N[C@@H](Cc2c[nH]c3ccccc23)C(=O)N[C@@H](CO)C(=O)N[C@@H](Cc2csc3ccccc23)C(=O)N1C (stereo partly shown) [Example 9133] ({CH2CO}-Y[NMeA]NPNLPWS[Bta][NMeNle][NMeNle]A[ξC]G-NH2; thioether N-14)
1 to 9.9 nM	CCCC[C@H]1C(=O)N(C)[C@@H](CCCC)C(=O)N[C@@H](C)C(=O)NC(C(=O)NCC(N)=O)CSCC(=O)N[C@@H](Cc2ccc(O)cc2)C(=O)N(C)[C@@H](C)C(=O)N[C@@H](CC(N)=O)C(=O)N2CCC[C@H]2C(=O)N[C@@H](CC(N)=O)C(=O)N[C@@H](CC(C)C)C(=O)N2C[C@H](O)C[C@H]2C(=O)N[C@@H](Cc2c[nH]c3ccccc23)C(=O)N[C@@H](CO)C(=O)N[C@@H](Cc2c[nH]c3ccccc23)C(=O)N1C (stereo partly shown) [Example 9134]
1 to 9.9 nM	CCCC[C@H]1C(=O)N(C)[C@@H](CCCC)C(=O)N[C@@H](C)C(=O)NC(C(=O)NCC(N)=O)CSCC(=O)N[C@@H](Cc2ccc(O)cc2)C(=O)N(C)[C@@H](C)C(=O)N[C@@H](CC(N)=O)C(=O)N2CCC[C@H]2C(=O)N[C@@H](CC(N)=O)C(=O)N[C@@H](CC(C)C)C(=O)N2C[C@H](O)C[C@H]2C(=O)N[C@@H](Cc2c[nH]c3ccccc23)C(=O)N[C@@H](CO)C(=O)N[C@@H](Cc2csc3ccccc23)C(=O)N1C (stereo partly shown) [Example 9135] ({CH2CO}-Y[NMeA]NPNL[Hyp]WS[Bta][NMeNle][NMeNle]A[ξC]G-NH2; thioether N-14)
10 to 99.9 nM	CCCC[C@H]1C(=O)N(C)[C@@H](C)C(=O)N[C@@H](CCCNC(=N)N)C(=O)NC(C(=O)NCC(N)=O)CSCC(=O)N[C@@H](Cc2ccc(O)cc2)C(=O)N(C)[C@@H](C)C(=O)N[C@@H](CC(N)=O)C(=O)N2CCC[C@H]2C(=O)N[C@@H](CC(N)=O)C(=O)N[C@@H](CC(C)C)C(=O)N2CCC[C@H]2C(=O)N[C@@H](Cc2c[nH]c3ccccc23)C(=O)N[C@@H](CO)C(=O)N[C@@H](Cc2c[nH]c3ccccc23)C(=O)N1C (stereo partly shown) [Example 9136] ({CH2CO}-Y[NMeA]NPNLPWSW[NMeNle][NMeA]R[ξC]G-NH2; thioether N-14)
1 to 9.9 nM	CCCC[C@H]1C(=O)N(C)[C@@H](C)C(=O)N[C@@H](CCCNC(=N)N)C(=O)NC(C(=O)NCC(N)=O)CSCC(=O)N[C@@H](Cc2ccc(O)cc2)C(=O)N(C)[C@@H](C)C(=O)N[C@@H](CC(N)=O)C(=O)N2CCC[C@H]2C(=O)N[C@@H](CC(N)=O)C(=O)N[C@@H](CC(C)C)C(=O)N2CCC[C@H]2C(=O)N[C@@H](Cc2c[nH]c3ccccc23)C(=O)N[C@@H](CO)C(=O)N[C@@H](Cc2csc3ccccc23)C(=O)N1C (stereo partly shown) [Example 9137] ({CH2CO}-Y[NMeA]NPNLPWS[Bta][NMeNle][NMeA]R[ξC]G-NH2; thioether N-14)
1 to 9.9 nM	CCCC[C@H]1C(=O)N(C)[C@@H](C)C(=O)N[C@@H](CCCNC(=N)N)C(=O)NC(C(=O)NCC(N)=O)CSCC(=O)N[C@@H](Cc2ccc(O)cc2)C(=O)N(C)[C@@H](C)C(=O)N[C@@H](CC(N)=O)C(=O)N2CCC[C@H]2C(=O)N[C@@H](CC(N)=O)C(=O)N[C@@H](CC(C)C)C(=O)N2C[C@H](O)C[C@H]2C(=O)N[C@@H](Cc2c[nH]c3ccccc23)C(=O)N[C@@H](CO)C(=O)N[C@@H](Cc2c[nH]c3ccccc23)C(=O)N1C (stereo partly shown) [Example 9138] ({CH2CO}-Y[NMeA]NPNL[Hyp]WSW[NMeNle][NMeA]R[ξC]G-NH2; thioether N-14)
1 to 9.9 nM	CCCC[C@H]1C(=O)N(C)[C@@H](C)C(=O)N[C@@H](CCCNC(=N)N)C(=O)NC(C(=O)NCC(N)=O)CSCC(=O)N[C@@H](Cc2ccc(O)cc2)C(=O)N(C)[C@@H](C)C(=O)N[C@@H](CC(N)=O)C(=O)N2CCC[C@H]2C(=O)N[C@@H](CC(N)=O)C(=O)N[C@@H](CC(C)C)C(=O)N2C[C@H](O)C[C@H]2C(=O)N[C@@H](Cc2c[nH]c3ccccc23)C(=O)N[C@@H](CO)C(=O)N[C@@H](Cc2csc3ccccc23)C(=O)N1C (stereo partly shown) [Example 9139] ({CH2CO}-Y[NMeA]NPNL[Hyp]WS[Bta][NMeNle][NMeA]R[ξC]G-NH2; thioether N-14)
